These results are taken from patent US8496952B2, “Antimicrobial compositions comprising silver chloride and benzoisothiazoline” (Clariant Finance (BVI) Limited, priority 2007, dated 2013).

The test system of series [1] is Staphylococcus aureus DSM 799, Pseudomonas aeruginosa DSM 1128, E-Coli DSM 682, Enterobacter aerogenes NCIMB 10102. The series can be described thus: Kill-kinetic measurement according to the Clariant method, supported silver/BIT (Example 2). The class given is cell-based. As to conditions: summary of Table 2. On the procedure:
(Kill-kinetic measurement according to the Clariant method) of silver-BIT mixtures in comparison to the individual biocides silver and BIT
(§1) • 900 ml of phosphate buffer pH 7.0: • 600 ml of H2O dest. +117 ml of (b)+183 ml of (a)
(§2) The bacteria are cultivated on a caso agar.
After the bacteria have spent 24 hours on the culture medium (caso agar), 10 ml of the 0.1 M phosphate buffer are added thereto and mixed for 20 seconds using a vortex mixer; 9 ml of the 0.1 M buffer solution are added to 1 ml of this solution; in turn, 1 ml of this solution are taken and 9 ml of 0.1 M phosphate buffer are added. The resulting solution is the inoculum with which the test series is carried out.
The germ count was determined in each case at the start (0 h), after 0.5 h, 1 h, 2 h; 3 h; 5 h; 7 h and 24 h in accordance with the TVC method European Pharmacopoeia 2.6.12.

Series [2] is described as follows: Color stability of Ag/BIT compared with AgCl, AgNO3, JMAC. The format is physicochemical.
The subject of series [3] is Staphylococcus aureus DSM 799, Pseudomonas aeruginosa DSM 1128, E-Coli DSM 682, Enterobacter aerogenes NCIMB 10102. The series can be described thus: Kill-kinetic measurement according to the Clariant method, Ag salt/BIT (Example 1). The format is cell-based. As to conditions: summary of Table 1. The procedure: (kill-kinetic measurement according to the Clariant method) of the composition Ag/BIT in comparison to the individual biocides AgCl, AgNO3, composition 1 and composition 5
as §1, §2
Description of the kill-kinetic measurement according to the Clariant method After the bacteria have spent 24 hours on the culture medium (caso agar), 10 ml of the 0.1 M phosphate buffer are added thereto and mixed for 20 seconds using a vortex mixer; 9 ml of the 0.1 M buffer solution are added to 1 ml of this solution; in turn, 1 ml of this solution are taken and 9 ml of 0.1 M phosphate buffer are added. The resulting solution is the inoculum with which the test series is carried out.
The concentration data given for the above samples refer in each case to elemental silver and pure BIT (i.e. not in salt form). Thus, for example in sample 4, AgNO3 and BIT were mixed together such that the mixture comprised 26.7 ppm of Ag, calculated as element, and 53.3 ppm of BIT, calculated as pure substance.
The germ count was determined in each case at the start (0 h), after 0.5 h, 1 h; 2 h; 3 h; 5 h; 7 h and 24 h in accordance with the TVC method European Pharmacopoeia 2.6.12.

With silver ions, in series [1], the “antimicrobial effect / efficiency (in words)” value is given as “moderate”.

On to `O=[N+]([O-])[O-].[Ag+]` [AgNO3 solution, AgNO3], for which the Appearance after entry in series [2] (5 min), in series [2] (30 min), in series [2] (1 h), in series [2] (2 h), in series [2] (6 h) and in series [2] (24 h) was “dark gray” throughout. In series [2] (immediately), the Appearance after entry was “gray”.

As to `O=c1[nH]sc2ccccc12` [Benzoisothiazoline, 1,2-benzoisothiazolin-3-one], in series [1], the “antimicrobial effect / efficiency (in words)” value is recorded as “only develops its antimicrobial effect after many hours”.

Take AgNO3 [Sample 8]: in series [3], the “antimicrobial effect / efficiency (in words)” value was “moderate”.

For the compound `[Cl][Ag]` [AgCl], the Appearance after result is reported as “gray” in series [2] (5 min); “dark gray” in series [2] (30 min); “dark gray” in series [2] (1 h); “dark gray” in series [2] (2 h); “dark gray” in series [2] (6 h); “dark gray” in series [2] (24 h). Further, the Appearance after result in series [2] (immediately) is “white”.

Regarding AgCl [Sample 9], the “antimicrobial effect / efficiency (in words)” value in series [3] is on record as “moderate”.
